From patent EP3811940B1, “SUBSTITUTED 4,5'-BITHIAZOLES AS INHIBITORS OF THE HUMAN DNA TOPOISOMERASE II” (Kemijski Institut, priority 2019, dated 2021)

Assays:
Type in all cases: biochemical
human topo IIα [1] = molecular target: T1, human topo IIα (Homo sapiens, UniProt P11388); test: HTS relaxation assay of human topo IIα; conditions: screening at 7.8, 31.5, 125 and 500 µM
T1 construct: purchased Inspiralis (Norwich, UK)
Protocol: The 14 selected compounds from the class of substituted 4,5'-bithiazoles were experimentally assayed if they inhibit catalytic activity of human topo IIα using an established high-throughput screening (HTS) relaxation assay for human topo IIα [24].
The HTS assays primarily served to select compounds for further evaluation.
Plate was rehydrated using wash buffer (20 mM Tris-HCl (pH = 7.6), 137 mM NaCl, 0.005 % (w/v) BSA, 0.05 % (v/v) TWEEN-20®) and biotinylated oligonucleotide was immobilized onto the wells. Next, the excess oligonucleotide was washed off with wash buffer. Enzyme assay was carried out in reaction volume of 30 µL using 0.75 µg supercoiled plasmid pNO1 as a substrate and human topo IIα. Enzyme was diluted to the appropriate concentration with dilution buffer comprised of 50 mM Tris-Hcl (pH = 7.5), 100 mM NaCl, 1 mM DTT, 0.5 mM EDTA, 50 % (v/v) glycerol and 50 µg/mL albumin. Tested compounds (0.3 µL) were added as a stock solution in DMSO and final concentration of DMSO was 1 %, respectively. Reactions were incubated at 37 °C for 30 min, and TF buffer (50 mM NaOAc (pH = 5.0), 50 mM NaCl, 50 mM MgCl2) was added to the wells and incubated at room temperature for additional 30 min to allow the triplex biotin-oligonucleotid-plasmid formation. To eliminate the aggregation and non-specific inhibition a surfactant (TWEEN-20®) was added to the reaction mixture. Unbound plasmid was washed off with TF buffer and stained with the DNA-detection Dye in the T10 buffer (10 mM Tris-HCl (pH = 8) and 1 mM EDTA) was added. After mixing, fluorescence was read using Tecan fluorimeter (Excitation: 485 nm and Emission: 535 nm). Screening was performed at the inhibitor concentrations of 7.8, 31.5, 125 and 500 µM. IC50 values were calculated using GraphPad Prism 6.0 software and represent the concentrations of inhibitors where residual activity of the enzyme was 50 % [24].

human topo IIα [2] = molecular target: T1, human topo IIα; test: kDNA decatenation assay catalysed by human topo IIα; conditions: for % Decatenated Assay 1 / % Decatenated Assay 2: % of decatenated kDNA; for % Decatenated Average: average of two assays
Protocol: One U of human topo II (α or β) was incubated with 200 ng kDNA in a 30 µL reaction at 37°C for 30 minutes under the following conditions: 50 mM Tris HCl (pH 7.5), 125 mM NaCl, 10 mM MgCl2, 5 mM DTT, 0.5 mM EDTA, 0.1 mg/ml bovine serum albumin (BSA) and 1 mM ATP. Compounds 1 and 9 were serially diluted in DMSO and added to the reaction mixture before the addition of the enzyme. […] Each reaction was then stopped by the addition of 30 µL chloroform/iso-amyl alcohol ([…]) and 30 µL Stop Dye (40 % sucrose (w/v), 100 mM Tris.HCl (pH 7.5), 10 mM EDTA, 0.5 µg/mL bromophenol blue), before being loaded on a 1% TAE gel run at 85 V for 90 minutes. Assays were performed at 4 concentrations of ligand: 3.9, 31.5, 125 and 500 µM. The final DMSO concentration in all reactions was 1 % (v/v).
Bands were visualized by the ethidium bromide staining for 15 minutes and destaining for subsequent 10 minutes. Gels were scanned using the documentation equipment (GeneGenius, Syngene, Cambridge, UK) and inhibition levels were calculated from band data obtained with gel scanning software (GeneTools, Syngene, Cambridge,UK). Experiment was performed in duplicates for all compounds.

human topo IIα [3] = molecular target: T1, human topo IIα; test: ATP hydrolysis (ATPase) assay coupled to NADH oxidation
Protocol: To investigate if our compounds can inhibit the ATP hydrolysis, catalysed by human topo IIα, first ATP hydrolysis assay was performed for compound 1. This assay is coupled to the oxidation of NADH, which was indicated by the decrease of optical density at 340 nm. Etoposide was used as a control compound.
Compounds were analyzed using a linked assay in which the ADP produced by the hydrolysis of ATP leads to conversion of NADH to NAD by a pyruvate kinase/lactate dehydrogenase mix. The disappearance of NADH is monitored at 340 nm. A mix of assay buffer (5 µL of 10X buffer per assay: final conc. 20 mM Tris-HCl, 5 mM magnesium acetate, 125 mM potassium acetate, 2 mM DTT, pH 7.9), linear pBR322 (1.5 µL of 1mg/mL per assay), phosphoenol pyruvate (0.5 µL of 80 mM per assay), pyruvate kinase/lactate dehydrogenase mix (0.75 µL per assay), NADH (1 µL of 20 mM per assay) and water (34.35 µL per assay) was made. 41.1 µL was aliquoted into the wells of a 384-well microtitre plate. […] 5 µL of the dilution buffer or human topo IIα (200 nM stock giving 12 nM final concentration) were then added and mixed. The change in OD340 was then measured in a plate reader over a period of about 10 minutes (called the prerun). 3.4 µL of 30 mM ATP was then added and the OD340 monitored for up to 30 minutes. Assays were performed at 37 °C. The final DMSO concentration in all the reactions was 1 % (v/v). Assays were performed at 3.9, 31.5, 125, and 500 µM final concentrations of the investigated compound 1. Compound were serially diluted in DMSO and added to the reaction before the addition of the enzyme. Control compound for was Etoposide. Determination if compound 1 from class of substituted 4,5'-bithiazoles inhibits ATPase activity of human topo II enzyme was performed in collaboration with Inspiralis.

T1 sequence (P11388 whole entry): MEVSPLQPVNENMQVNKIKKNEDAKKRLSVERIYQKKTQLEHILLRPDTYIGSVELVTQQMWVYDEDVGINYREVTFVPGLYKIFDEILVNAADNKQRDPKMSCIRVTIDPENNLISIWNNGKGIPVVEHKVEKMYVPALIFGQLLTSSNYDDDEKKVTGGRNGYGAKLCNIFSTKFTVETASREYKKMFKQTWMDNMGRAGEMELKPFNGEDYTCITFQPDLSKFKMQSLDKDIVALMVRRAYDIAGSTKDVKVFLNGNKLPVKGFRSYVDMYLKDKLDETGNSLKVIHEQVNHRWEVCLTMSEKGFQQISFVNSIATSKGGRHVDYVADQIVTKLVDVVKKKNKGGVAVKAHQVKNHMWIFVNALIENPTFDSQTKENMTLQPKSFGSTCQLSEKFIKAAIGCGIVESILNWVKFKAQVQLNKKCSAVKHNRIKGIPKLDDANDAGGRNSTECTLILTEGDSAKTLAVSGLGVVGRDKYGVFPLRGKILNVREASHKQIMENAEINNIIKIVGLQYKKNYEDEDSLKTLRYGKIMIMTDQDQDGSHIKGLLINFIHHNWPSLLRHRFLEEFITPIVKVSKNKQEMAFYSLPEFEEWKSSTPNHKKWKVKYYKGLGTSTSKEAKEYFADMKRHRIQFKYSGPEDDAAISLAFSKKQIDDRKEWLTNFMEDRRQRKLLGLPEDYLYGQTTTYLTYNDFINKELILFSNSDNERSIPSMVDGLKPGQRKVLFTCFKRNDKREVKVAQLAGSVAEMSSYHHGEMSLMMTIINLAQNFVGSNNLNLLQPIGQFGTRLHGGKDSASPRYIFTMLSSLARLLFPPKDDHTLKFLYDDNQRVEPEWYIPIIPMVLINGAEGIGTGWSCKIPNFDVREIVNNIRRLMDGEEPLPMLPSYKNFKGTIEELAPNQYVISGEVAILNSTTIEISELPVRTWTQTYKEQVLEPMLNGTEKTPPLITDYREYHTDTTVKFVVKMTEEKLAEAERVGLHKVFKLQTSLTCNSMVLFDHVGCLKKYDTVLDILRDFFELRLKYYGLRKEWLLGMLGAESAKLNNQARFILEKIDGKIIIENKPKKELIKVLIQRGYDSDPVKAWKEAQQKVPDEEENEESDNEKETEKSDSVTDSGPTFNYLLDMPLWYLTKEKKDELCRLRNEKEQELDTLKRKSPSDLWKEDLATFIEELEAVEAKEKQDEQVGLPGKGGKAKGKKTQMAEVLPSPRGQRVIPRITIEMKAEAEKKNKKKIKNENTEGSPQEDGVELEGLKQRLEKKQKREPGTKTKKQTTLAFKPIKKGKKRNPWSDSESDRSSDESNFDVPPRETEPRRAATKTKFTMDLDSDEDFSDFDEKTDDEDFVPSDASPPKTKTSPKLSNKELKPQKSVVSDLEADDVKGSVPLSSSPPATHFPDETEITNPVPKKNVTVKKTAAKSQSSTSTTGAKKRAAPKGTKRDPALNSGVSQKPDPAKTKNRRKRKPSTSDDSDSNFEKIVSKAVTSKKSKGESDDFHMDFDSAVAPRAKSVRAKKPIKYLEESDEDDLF

| SMILES | IC50 (human topo IIα [1]) [µM] | % Decatenated Assay 1 (human topo IIα [2]; 3.9 µM) [%] | % Decatenated Assay 2 (human topo IIα [2]; 3.9 µM) [%] | % Decatenated Average (human topo IIα [2]; 3.9 µM) [%] | inhibition at 31.5 µM (human topo IIα [2]; 31.5 µM) [%] | % Decatenated Assay 1 (human topo IIα [2]; 31.5 µM) [%] | % Decatenated Assay 2 (human topo IIα [2]; 31.5 µM) [%] | % Decatenated Average (human topo IIα [2]; 31.5 µM) [%] | % of inhibition of decatenation (human topo IIα [2]; 125 µM) | % Decatenated Assay 1 (human topo IIα [2]; 125 µM) [%] | % Decatenated Assay 2 (human topo IIα [2]; 125 µM) [%] | % Decatenated Average (human topo IIα [2]; 125 µM) [%] | % of inhibition of decatenation (human topo IIα [2]; 500 µM) | % Decatenated Assay 1 (human topo IIα [2]; 500 µM) [%] | % Decatenated Assay 2 (human topo IIα [2]; 500 µM) [%] | % Decatenated Average (human topo IIα [2]; 500 µM) [%] | inhibition at 125 µM (human topo IIα [3]; first parallel) [%] | inhibition at 125 µM (human topo IIα [3]; second parallel) [%] | inhibition at 125 µM (human topo IIα [2]; 125 µM) [%] | inhibition at 500 µM (human topo IIα [2]; 500 µM) [%] |
| --- | --- | --- | --- | --- | --- | --- | --- | --- | --- | --- | --- | --- | --- | --- | --- | --- | --- | --- | --- | --- |
| Cc1nc(N)sc1-c1csc(Nc2ccc(C(F)(F)F)cc2)n1 [Compound 1, 4'-methyl-N2-(4-(trifluoromethyl)phenyl)-[4,5'-bithiazole]-2,2'-diamine] | 33.4 | 100 | 91 | 95.5 | 19.1 | 72.4 | 89.4 | 80.5 | full inhibition | 0 | 0 | 0 | full inhibition | 0 | 0 | 0 | 75 | 85 | – | – |
| CC(=O)Nc1ccc(Nc2nc(-c3sc(NC(C)=O)nc3C)cs2)cc1 [Compound 9, N-(4-((2'-acetamido-4'-methyl-[4,5'-bithiazol]-2-yl)amino)phenyl)acetamide] | 60 | 98.7 | 99.2 | 98.9 | – | 99.4 | 97.9 | 98.7 | – | 89.5 | 86.7 | 88.1 | – | 34 | 31.3 | 32.7 | – | – | 11.9 | 67.3 |
| COc1cc([C@@H]2c3cc4c(cc3[C@@H](O[C@@H]3O[C@@H]5CO[C@@H](C)O[C@H]5[C@H](O)[C@H]3O)[C@H]3COC(=O)[C@H]23)OCO4)cc(OC)c1O [Etoposide, etoposide, reference compound] | – | – | – | – | – | – | – | – | – | – | – | – | – | – | – | – | 70 | 63 | – | – |
